The record followed here is ChEMBL document CHEMBL4371056, “The development and characterization of a chemical probe targeting PRMT1 over PRMT5” (Bioorg Med Chem, 2019).

The species named for assay [1] is Homo sapiens. As to the kind of experiment: Binding affinity to PRMT1 C101A mutant (unknown origin) assessed as optimum drug level for biotin labelling of PRMT1 using biotin azide and in presence of SAM incubated for 30 mins by Western blot analysis.
In assay [2] the target is T1, Protein arginine N-methyltransferase 1 (Homo sapiens, UniProt Q99873). As to the kind of experiment: Binding affinity to recombinant full-length N-terminal His6-tagged PRMT1 (unknown origin) assessed as biotin labelling of PRMT1 at 10 uM in presence of recombinant full-length N-terminal His6-tagged PRMT5 (unknown origin) using biotin azide and in presence of SAM incubated for 30 mins at 25 degC by Western blot analysis.
Target sequence in this assay (Q99873 whole entry, looked up): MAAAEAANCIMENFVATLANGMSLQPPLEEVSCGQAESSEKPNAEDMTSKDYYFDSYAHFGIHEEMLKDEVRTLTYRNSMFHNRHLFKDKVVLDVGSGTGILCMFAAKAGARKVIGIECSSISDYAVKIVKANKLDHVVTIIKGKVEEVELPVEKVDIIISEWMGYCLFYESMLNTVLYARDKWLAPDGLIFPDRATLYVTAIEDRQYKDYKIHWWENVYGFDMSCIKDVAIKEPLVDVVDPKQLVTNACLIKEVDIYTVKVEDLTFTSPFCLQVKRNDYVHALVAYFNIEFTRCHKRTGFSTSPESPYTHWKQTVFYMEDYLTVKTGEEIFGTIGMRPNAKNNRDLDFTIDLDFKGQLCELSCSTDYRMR

Assay [3] has as its target T1, Protein arginine N-methyltransferase 1. As to the kind of experiment: Binding affinity to recombinant full-length N-terminal His6-tagged PRMT1 (unknown origin) assessed as biotin labelling of PRMT1 at 10 uM in presence of recombinant full-length N-terminal His6-tagged PRMT5 (unknown origin) using biotin azide and in presence of SAM incubated for 30 mins at 37 degC by Western blot analysis. In general terms: Immunoblotting shows a protein as a band on a membrane.
Target sequence in this assay (Q99873 whole entry, looked up): as above

The target is the same in assay [4]. The experiment in a line: Binding affinity to recombinant full-length N-terminal His6-tagged PRMT1 (unknown origin) assessed as lowest drug level for biotin labelling of PRMT1 using biotin azide and in presence of SAM incubated for 30 mins by Western blot analysis.
Target sequence in this assay (Q99873 whole entry, looked up): as above
Assay [5] shares this target. The experiment in a line: Binding affinity to recombinant full-length N-terminal His6-tagged PRMT1 (unknown origin) assessed as biotin labelling of PRMT1 at 1 uM using biotin azide and in absence of SAM incubated for 30 mins by Western blot analysis.
Target sequence in this assay (Q99873 whole entry, looked up): as above
The target in assay [6] is T2, Protein arginine N-methyltransferase 5 (Homo sapiens, UniProt O14744). As to the kind of experiment: Binding affinity to recombinant full-length N-terminal His6-tagged PRMT5 (unknown origin) assessed as biotin labelling of PRMT5 at 50 uM using biotin azide incubated for 30 mins by Western blot analysis.
The species named for assay [7] is Homo sapiens. The experiment in a line: Selectivity index, ratio of binding affinity to recombinant full-length N-terminal His6-tagged PRMT5 (unknown origin) assessed as biotin labelling of PRMT5 at 25 uM to binding affinity to recombinant full-length N-terminal His6-tagged PRMT1 (unknown origin) assessed as biotin labelling of PRMT1 at 25 uM.
Assay [8] is filed under the species Homo sapiens. The experiment in a line: Binding affinity to PRMT1 C101A mutant (unknown origin) assessed as biotin labelling of PRMT1 at <25 uM using biotin azide and in presence of SAM incubated for 30 mins by Western blot analysis.
Assay [9] deals with T1, Protein arginine N-methyltransferase 1. The experiment in a line: Binding affinity to recombinant full-length N-terminal His6-tagged PRMT1 (unknown origin) assessed as biotin labelling of PRMT1 at >25 uM using biotin azide incubated for 30 mins by Western blot analysis.
Target sequence in this assay (Q99873 whole entry, looked up): as above
Assay [10] has as its target T2, Protein arginine N-methyltransferase 5. The experiment in a line: Inhibition of recombinant full-length N-terminal His6-tagged PRMT5 (unknown origin) using AcH4-21 peptide substrate preincubated for 10 mins followed by substrate/14C-methyl-SAM addition and measured after 15 mins by phosphorimaging analysis based radioisotopic assay.
For assay [11], the target named is T1, Protein arginine N-methyltransferase 1. The experiment in a line: Binding affinity to recombinant full-length N-terminal His6-tagged PRMT1 (unknown origin) assessed as time needed for maximum biotin labelling of PRMT1 at 10 uM using biotin azide and in presence of SAM incubated for 30 mins by Western blot analysis.
Target sequence in this assay (Q99873 whole entry, looked up): as above
Assay [12] has the same target. As to the kind of experiment: Inhibition of recombinant full-length N-terminal His6-tagged PRMT1 (unknown origin) using AcH4-21 peptide substrate preincubated for 10 mins followed by substrate/14C-methyl-SAM addition and measured after 15 mins by phosphorimaging analysis based radioisotopic assay.
Target sequence in this assay (Q99873 whole entry): as the sequence (Q99873 whole entry, looked up) above
Assay [13] is filed under the species Homo sapiens. The experiment in a line: Binding affinity to PRMT1 C101A mutant (unknown origin) assessed as biotin labelling of PRMT1 at >25 uM using biotin azide and in presence of SAM incubated for 30 mins by Western blot analysis.
Assay [14] deals with T1, Protein arginine N-methyltransferase 1. As to the kind of experiment: Binding affinity to recombinant full-length N-terminal His6-tagged PRMT1 (unknown origin) assessed as biotin labelling of PRMT1 at 1 uM using biotin azide and in presence of SAM incubated for 30 mins by Western blot analysis.

Activity calls are given as the source filed them. No cut-off for these calls is given here. Starred links: 1 amine or outer side, 2 acyl side, 3 side chain; linkers in the order of their positions; H or OH if unused. Non-standard residues stand in square brackets, D forms with d. Residues, ends and D or L forms follow the SMILES beside them. *: point of attachment. X1 = N=C(CCl)NCCCC(N[*:1])C(=O)[*:2]; Butanoyl(4-ethynyl) = C#CCCCC(=O)*

T2 sequence (O14744 whole entry): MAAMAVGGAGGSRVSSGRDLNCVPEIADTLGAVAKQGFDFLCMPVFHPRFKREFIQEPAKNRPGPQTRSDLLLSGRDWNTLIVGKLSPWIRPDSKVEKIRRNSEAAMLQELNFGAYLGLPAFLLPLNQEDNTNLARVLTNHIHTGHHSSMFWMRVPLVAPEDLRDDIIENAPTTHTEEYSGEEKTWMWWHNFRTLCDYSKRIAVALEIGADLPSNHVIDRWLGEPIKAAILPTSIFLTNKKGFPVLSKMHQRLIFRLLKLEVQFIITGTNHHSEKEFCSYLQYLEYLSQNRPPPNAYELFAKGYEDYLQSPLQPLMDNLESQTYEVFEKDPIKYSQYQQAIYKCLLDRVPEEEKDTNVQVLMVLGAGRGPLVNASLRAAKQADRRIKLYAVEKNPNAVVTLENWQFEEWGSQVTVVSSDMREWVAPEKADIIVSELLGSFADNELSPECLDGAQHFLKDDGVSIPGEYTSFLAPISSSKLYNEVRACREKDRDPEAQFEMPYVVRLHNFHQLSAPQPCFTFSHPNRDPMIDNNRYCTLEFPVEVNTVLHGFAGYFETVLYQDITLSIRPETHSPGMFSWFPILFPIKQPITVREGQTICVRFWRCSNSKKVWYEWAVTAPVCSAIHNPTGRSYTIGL

In the case of `C#CCCCC(=O)N[C@@H](Cc1cnc[nH]1)C(=O)N[C@@H](CCCCN)C(=O)N[C@@H](Cc1cnc[nH]1)C(=O)N[C@@H](C)C(=O)NC(CCCNC(=N)CCl)C(=O)NCC(=O)NCC(=O)N[C@@H](CCCCN)C(=O)NCC(=O)N[C@@H](CC(C)C)C(=O)NCC(=O)N[C@@H](CCCCN)C(=O)NCC(=O)NCC(=O)N[C@@H](C)C(=O)N[C@@H](CCCCN)C(=O)O` (some centres undefined) ({Butanoyl(4-ethynyl)}-HKHA[X1]GGKGLGKGGAK-OH), the Activity is 10 µM in the assay listed under Homo sapiens [1] and 0.25 µM in assay [4]. The result (in assay [2]; in assay [3]; in [5]; in assay [9]; in the assay listed under Homo sapiens [13]; in [14]) was Active. Moreover, the result (in assay [6]; in the assay filed under Homo sapiens [8]) was inactive. Moreover, in the assay listed under Homo sapiens [7], the Ratio came out at 8. Also, the values for the concentration for half-maximal inhibition (IC50) in [10] and in assay [12] were > 500 µM and 20 µM, respectively. Also, the TIME in assay [11] was determined as 0.5 h.

Broadly, the IC50 is the concentration that inhibits the measured activity by half.
